One series relates to MDA-MB-231 cells. Briefly: MTT cell viability assay. The format is cell-based, human. The settings on record: for inhibition at 10 µM: Homo sapiens, MDA-MB-231, 48 h, read-out: Antiproliferative activity at 10μM in MDA-MB-231; for inhibition at 10 µM / Antiproliferative activity at 10μM in MDA-MB-231: % inhibition. The protocol: (§1) Cell viability assay was performed as described previously. Briefly, cells were seeded in 96 well plates and treated with different concentrations of compound 19 for 48 h. After drug treatment, MTT reagent was added in each well of the plate and cell viability was quantified by measuring the absorbance at 590 nm.

Series [1] relates to 4T1 (Mouse Breast Cancer). Briefly: MTT cell viability assay. The format is cell-based. The settings on record: 10 µM. The protocol:
as §1
(In general: Tetrazolium assays rely on reduction of a dye to a coloured formazan, in cell work by metabolically active cells.)

The test system of a further series is A172 (Brain). Nature of the series: MTT cell viability assay. The format is cell-based. The procedure: as §1
The test system of a further series is A549 (Lung). Briefly: MTT cell viability assay. Format: cell-based. The protocol: as §1
A further series concerns DLD1 (Colon). Briefly: MTT cell viability assay. Format: cell-based. The protocol:
as §1

Another series relates to PANC-1 (Pancreas). Nature of the series: MTT cell viability assay. The format is cell-based. The protocol: as §1
The test system of the next series is PLC/PRF/5 (Liver). Briefly: MTT cell viability assay. Format: cell-based. The protocol: as §1
The next series deals with SK-OV-3 (Ovary). Nature of the series: MTT cell viability assay. Format: cell-based. The procedure:
as §1

For a further series, the target named is T1, FEN1 protein (Homo sapiens, UniProt P39748).
T1 construct: His-tag (C); made in house; host or cells: E. coli BL21DE3
T1 sequence (P39748 whole entry): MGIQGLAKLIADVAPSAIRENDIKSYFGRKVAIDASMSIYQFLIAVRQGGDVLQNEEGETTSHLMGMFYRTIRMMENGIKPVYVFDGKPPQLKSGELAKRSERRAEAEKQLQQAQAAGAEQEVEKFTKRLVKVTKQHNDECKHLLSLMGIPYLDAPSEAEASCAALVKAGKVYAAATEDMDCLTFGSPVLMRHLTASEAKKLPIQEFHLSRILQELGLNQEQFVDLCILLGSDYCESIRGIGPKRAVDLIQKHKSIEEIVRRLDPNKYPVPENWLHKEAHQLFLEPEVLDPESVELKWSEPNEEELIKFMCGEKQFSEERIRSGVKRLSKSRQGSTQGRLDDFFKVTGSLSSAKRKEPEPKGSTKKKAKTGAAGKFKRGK
Briefly: Flap cleavage assay. Format: biochemical. The settings on record: compound 19 at 5, 10, 20 µM. The protocol: Purification of FEN 1: Full length FEN1 DNA template was taken from pShuttle-FEN1hWT, a gift from Sheila Stewart (Addgene plasmid#35027) is subcloned into a pET41a expression vector containing C-terminal His-tag. pET41FEN1His freshly transformed into expression host BL21DE3 E. coli cells (Novagene), single colonies picked and inoculated in 5ml of LB media containing 50μg/ml of Kanamycin, grown for 3 to 4 hrs and further subcultured in 100 ml of LB medium containing 50μg/ml of Kanamycin and grown at 37°C till the OD reached to 0.6-0.7, induced at 0.5 mM IPTG at 16°C for 18hrs. Pellets were collected and lysed in 20 mM tris 150 mM NaCl (Lysis buffer) containing 1mM PMSF and 1mM benzamidine hydrochloride and purified by Ni-NTA affinity chromatography.
Flap cleavage assay: All oligos were purchased from Integrated DNA Technologies and dissolved in nuclase free water at concentration of 100μM. FAM-labeled 25+6 Flap-mer (5’-[…]-3’*6FAM)) was annealed with 52- mer (5’-[…]-3’) and 27-mer (5’-[…]-3’) to form a complementary double strand flap cleavage substrate. […] The cleaved and uncleaved DNA molecules are separated on 15% Urea gel and bands were detected by Image Quant LAS 4010 (GE Healthcare).

SMILES strings stand for the structures.

Take `COc1ccc(/C=C/c2cc(=O)oc3c2ccc2ccccc23)cc1` [Compound 11]: the melting point was in the range of 142 to 144 °C. Moreover, the inhibition at 10 µM in the series on MDA-MB-231 cells is 1.46%. With `CN(C)c1ccc(/C=C/c2cc(=O)oc3c2ccc2ccccc23)cc1` [Compound 12], the “Antiproliferative activity at 10μM in MDA-MB-231” value in the series with MDA-MB-231 cells came to 4.62%. On to `N#Cc1ccc(/C=C/c2cc(=O)oc3c2ccc2ccccc23)cc1` [Compound 14], for which the inhibition at 10 µM in the series with MDA-MB-231 cells came to 12.4%.

`COc1cccc(/C=C/c2cc(=O)oc3c2ccc2ccccc23)c1` [Compound 15] registered a melting point of 145 to 146 °C. In turn, `COc1cccc(OC)c1/C=C/c1cc(=O)oc2c1ccc1ccccc12` [Compound 16] had a melting point of 174 to 175 °C. Further, in the series on MDA-MB-231 cells (10 µM), the “% Inhibition of cell viability at 10 µM, MDA-MB-231 (Breast)” value stood at 56.48%. In addition, the inhibition at 10 µM in the series with MDA-MB-231 cells is more than 50%. Besides, the “% Inhibition of cell viability at 10 µM, 4T1 (Mouse Breast Cancer)” value in series [1] was 33.89%. Also, in the series on A172 (Brain), the “% Inhibition of cell viability at 10 µM, A172 (Brain)” value is listed as “NA (NA= Not active (% Inhibition <30%))”. The “% Inhibition of cell viability at 10 µM, A549 (Lung)” value in the series on A549 (Lung) is reported as “NA (NA= Not active (% Inhibition <30%))”. For the same compound, the “% Inhibition of cell viability at 10 µM, DLD1 (Colon)” value with DLD1 (Colon) is reported as “NA (NA= Not active (% Inhibition <30%))”. Also, the “% Inhibition of cell viability at 10 µM, PANC-1 (Pancreas)” value with PANC-1 (Pancreas) was “NA (NA= Not active (% Inhibition <30%))”. The “% Inhibition of cell viability at 10 µM, PLC/PRF/5 (Liver)” value in the series with PLC/PRF/5 (Liver) is on record as “NA (NA= Not active (% Inhibition <30%))”. Moreover, the “% Inhibition of cell viability at 10 µM, SK-OV-3 (Ovary)” value in the series with SK-OV-3 (Ovary) is reported as “NA (NA= Not active (% Inhibition <30%))”.

Turning to `COc1ccc(/C=C/c2cc(=O)oc3c2ccc2ccccc23)cc1OC` [Compound 17], the melting point lay within 180 to 182 °C. With `COc1cc(/C=C/c2cc(=O)oc3c2ccc2ccccc23)cc(OC)c1OC` [Compound 18], the melting point lay in the range of 172 to 173 °C. Further, the inhibition at 10 µM in the series with MDA-MB-231 cells stood at 8.2%. Turning to `COc1ccc(OC)c(/C=C/c2cc(=O)oc3c2ccc2ccccc23)c1` [Compound 20], the melting point was 168 to 170 °C. For the same compound, the inhibition at 10 µM with MDA-MB-231 cells was determined as 7.53%. `COc1ccc(/C=C/c2cc(=O)oc3c2ccc2ccccc23)c(OC)c1` [Compound 21] displayed a melting point of 181 to 183 °C. For the same compound, the inhibition at 10 µM with MDA-MB-231 cells was determined as 0.16%. On the same counts, the results for `COc1ccc(/C=C/c2cc(=O)oc3c2ccc2c(OC)cccc23)cc1` [Compound 23] are 170 to 171 °C and 6.04%. Taken in the same sequence, the figures for `COc1cccc2c1ccc1c(/C=C/c3ccc([N+](=O)[O-])cc3)cc(=O)oc12` [Compound 24] were 220 to 222 °C and 20%.

As to `COc1cccc2c1ccc1c(/C=C/c3ccc(C#N)cc3)cc(=O)oc12` [Compound 25], the melting point lay within 188 to 189 °C. Besides, the inhibition at 10 µM in the series on MDA-MB-231 cells stood at 27.9%.

In the case of `COc1cc(/C=C/c2cc(=O)oc3c2ccc2c(OC)cccc23)cc(OC)c1` [Compound 26], the “Antiproliferative activity at 10μM in MDA-MB-231” value with MDA-MB-231 cells is listed as 50.03%. For the same compound, in [1], the “% Inhibition of cell viability at 10 µM, 4T1 (Mouse Breast Cancer)” value was 36.12%. Also, the “% Inhibition of cell viability at 10 µM, A549 (Lung)” value with A549 (Lung) is “NA (NA= Not active (% Inhibition <30%))”. Further, the “% Inhibition of cell viability at 10 µM, DLD1 (Colon)” value in the series on DLD1 (Colon) is “NA (NA= Not active (% Inhibition <30%))”. Further, in the series on PANC-1 (Pancreas), the “% Inhibition of cell viability at 10 µM, PANC-1 (Pancreas)” value is listed as “NA (NA= Not active (% Inhibition <30%))”.

As to `COc1ccc(/C=C/c2cc(=O)oc3c2ccc2c(OC)cccc23)cc1OC` [Compound 27], the inhibition at 10 µM with MDA-MB-231 cells came to 8.81%. The compound `COc1cccc(OC)c1/C=C/c1cc(=O)oc2c1ccc1c(OC)cccc12` [Compound 28] yielded a melting point of 178 to 179 °C. `COc1ccc(OC)c(/C=C/c2cc(=O)oc3c2ccc2c(OC)cccc23)c1` [Compound 29]: in the series on MDA-MB-231 cells, the inhibition at 10 µM was found to be 10.4%.

Turning to `COc1ccc(/C=C/c2cc(=O)oc3c2ccc2c(OC)cccc23)c(OC)c1` [Compound 30], the inhibition at 10 µM in the series on MDA-MB-231 cells was 17.9%. With `COc1cc(/C=C/c2cc(=O)oc3c2ccc2c(OC)cccc23)cc(OC)c1OC` [Compound 31], the melting point was 205 to 206 °C. The inhibition at 10 µM in the series on MDA-MB-231 cells is 1.7%. In turn, `Cc1cccc2c1ccc1c(/C=C/c3ccccc3)cc(=O)oc12` [Compound 32] returned a melting point of 178 to 179 °C. Also, in the series on MDA-MB-231 cells, the inhibition at 10 µM was 18.2%. Take `Cc1cccc2c1ccc1c(/C=C/c3ccc([N+](=O)[O-])cc3)cc(=O)oc12` [Compound 33]: the melting point is 238 to 239 °C. Further, in the series with MDA-MB-231 cells, the inhibition at 10 µM worked out at 6.12%.

For `COc1cc(/C=C/c2cc(=O)oc3c2ccc2c(C)cccc23)cc(OC)c1` [Compound 34], the inhibition at 10 µM in the series on MDA-MB-231 cells stood at 0.54%.

As to `COc1ccc(/C=C/c2cc(=O)oc3c2ccc2c(C)cccc23)c(OC)c1` [Compound 35], in the series with MDA-MB-231 cells, the inhibition at 10 µM came to 12.8%.

In the case of `COc1cccc(OC)c1/C=C/c1cc(=O)oc2c1ccc1c(C)cccc12` [Compound 37], the melting point was 160 to 161 °C. Also, the inhibition at 10 µM with MDA-MB-231 cells was 11.6%.

Take `COc1cc(/C=C/c2cc(=O)oc3c2ccc2c(C)cccc23)cc(OC)c1OC` [Compound 38]: the inhibition at 10 µM with MDA-MB-231 cells came to 22%. Same read-out and setting: with `COc1ccc(/C=C/c2cc(=O)oc3c2ccc2c(C)cccc23)cc1OC` [Compound 39] the figure was 10.1%. `O=C(O)c1cc[c]([Sb](=[O])([OH])[OH])cc1[N+](=O)[O-]` [NSC13755, reference compound]: the “Inhibition of FEN1 flap cleavage activity” value on FEN1 protein is “less clevage”.

One may read the melting point as the temperature, or range, at which the solid turns liquid.

The record behind these values is paper PMC5587642, “A Novel Benzocoumarin-Stilbene Hybrid as a DNA ligase I inhibitor with in vitro and in vivo anti-tumor activity in breast cancer models” (Scientific Reports, 2017).
